The results in this text go back to patent US8168197B2, “External composition for skin containing Scrophularia buergeriana miq. extract and the use thereof for the skin moisturizing cosmetics” (Amorepacific Corporation, priority 2007, dated 2012).

This experiment deals with human skin. Description: Production of epidermal lipid (total ceramide) on human skin. The experiment is classed as in vivo. The settings on record: 5% test material, 20 μl on human forearm. Here is the method:
In order to evaluate the effects of the Scrophularia buergeriana Miq. and Poria cocos Wolf extracts on an increase in the synthesis of lipid on the human skin, the following test was carried out. The composition of the test material consisted of 0.5% of Carbopol ETD 2020, 0.45% of TEA 0.45%, 5% test material and the balance of deionized water. On the forearm of each of 12 adult men and women, a region having a size corresponding to the size of a 50-ml polypropylene conical tube was marked, and then 20 μl of each of control groups, the Scrophularia buergeriana Miq. extract and the Scrophularia buergeriana Miq. extract/Poria cocos Wolf extract mixture was applied on the subjects. Herein, the subjects were divided into two groups, lipids were extracted from the subjects at day 3 and day 11 in the following manner, and the extracted lipid were analyzed. Specifically, the forearm was washed with service water, and then subjected to tape stripping one time with Scotch® 810 Magic tape. Then, 1 ml of a mixture of cyclohexane/ethanol (4:1) was added to the forearm using a 50-ml cut polypropylene conical tube as a reservoir and shaken for about 1 minute, and was then transferred into a fresh tube. […]
After the TLC plate was developed, the size of each band was measured at a wavelength of 570 nm using a TLC Scanner-II densitometer (CAMAG). […]

With `OCC(O)CO` [Glycerin], the “production of ceramide relative to the untreated group taken as 100%, 3 days after treatment” value (3 days after treatment) is 102%. Besides, the “production of ceramide relative to the untreated group taken as 100%, 11 days after treatment” value (11 days after treatment) was determined as 94%.
